Data taken from patent US8012967B2, “Minor groove binders” (University of Strathclyde, priority 2006, dated 2011).
In brackets after ≈: the same amount, converted by molar mass. Where two headings read alike, the source gives them in different places.

Columns and labels:
[1] = system: Staphylococcus aureus Strain 2 (NCTC 6571); assay: MIC, Staphylococcus aureus Strain 2; type: cell-based; details: Staphylococcus aureus, NCTC6571, read-out: Minimum inhibitory concentrations (MICs), S. aureus 2
In short: (§1)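 Broth microdilution with doubling dilutions of compound in Mueller-Hinton Broth, incubated at 37° C. MIC read from the colour pattern in the wells. Sterility and growth controls included.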

[2] = system: Staphylococcus aureus Strain 1 (BSAC04(1)) (Clinical isolate from Glasgow Royal Infirmary); assay: MIC, Staphylococcus aureus Strain 1; type: cell-based; details: Staphylococcus aureus, read-out: Minimum inhibitory concentrations (MICs), S aureus 1
In short: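 Broth microdilution in Mueller-Hinton Broth: test sample at 200 μg/ml working concentration, serially doubled across rows, incubated at 37° C. MIC taken from the colour pattern, with sterility and growth controls included.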

[3] = system: Streptococcus faecalis (NCTC 775); assay: MIC, Streptococcus faecalis; type: cell-based; details: Enterococcus faecalis, NCTC775, read-out: Minimum inhibitory concentrations (MICs), St. faecalis
In short: as §1

[4] = system: Aspergillus niger (IMI 1745); assay: MIC, Aspergillus niger; type: cell-based; details: Aspergillus niger, read-out: Minimum inhibitory concentrations (MICs), A. niger
[5] = system: clinical strains of S. aureus in the Scottish Clinical Isolates Collection; assay: MIC against collected clinical strains of S. aureus (BSAC03/04/05 (1)-(10)); type: cell-based, Staphylococcus aureus; details: for MIC: Staphylococcus aureus, read-out: Minimum inhibitory concentrations (MICs)
Text: In particular, minimum inhibitory concentrations (MICs) against microorganisms (e.g. S. Aureus, Streptococcus faecalis, Aspergillus niger, Candida albicans or Mycobacterium fortuitum) for compounds of the invention may be measured using procedures such as those described in A. J. Drummond and R. D. Waigh “The development of microbiological methods for phytochemical screening” Recent Res. Devel. Phytochem. 4, 143-152 (2000), the disclosures of which document are hereby incorporated by reference.
Sample dilutions were typically prepared by dissolving the test sample (2 mg) in sterile water (10 mL) to provide a working concentration of 200 μg/ml. The test wells on each 96 well microtitre plate were initially inoculated with culture medium (100 μL) using Mueller-Hinton Broth for antibacterial assays and Sabouraud Broth for antifungal assays. A solution of each test sample (100 μL) was added to one row of each plate and a series of doubling dilutions made for successive rows. Incubation was at 37° C. for antibacterial assay and 25° C. for antifungal assay. […] From the observed pattern of colour, the MIC was determined. All tests included sterility and growth controls.
BSAC03/04/05 (1)-(10) refer to collected clinical strains of S. aureus in the Scottish Clinical Isolates Collection.

[6] = value in parentheses, na = not active

`Cn1cc(NC(=O)c2cc(NC(=O)c3ccc(/C=C/c4cnc5ccccc5c4)cc3)cn2C)cc1C(=O)NCCN1CCOCC1` [Example 2, 1-Methyl-4-({[1-methyl-4-({4-[(E)-2-(3-quinolinyl)ethenyl]benzoyl}amino)-1H-pyrrol-2-yl]carbonyl}amino)-N-[2-(4-morpholinyl)ethyl]-1H-pyrrole-2-carboxamide] gave an MIC [1, 6] of 0.25 µg/mL, an MIC ([1]; value outside parentheses) of 0.32 µM and an MIC [2, 6] of 0.12 µg/mL. The MIC ([2]; value outside parentheses) was 0.16 µM, the MIC [3, 6] was 25 µg/mL and the MIC ([3]; value outside parentheses) was 33.5 µM. It also gave an MIC [4, 6] of 50 µg/mL, an MIC ([4]; value outside parentheses) of 67 µM and an MIC ([5]; S. aureus BSAC culture year 2003 number 1) of 0.25 µg/mL (≈ 0.396 µM). It also gave an MIC ([5]; S. aureus BSAC culture year 2003 number 2) of 0.25 µg/mL (≈ 0.396 µM), an MIC ([5]; S. aureus BSAC culture year 2003 number 3) of 0.25 µg/mL (≈ 0.396 µM) and an MIC ([5]; S. aureus BSAC culture year 2003 number 4) of 0.12 µg/mL (≈ 0.19 µM). For the same compound, the MIC ([5]; S. aureus BSAC culture year 2003 number 5) was 0.12 µg/mL (≈ 0.19 µM), the MIC ([5]; S. aureus BSAC culture year 2003 number 6) was 0.12 µg/mL (≈ 0.19 µM) and the MIC ([5]; S. aureus BSAC culture year 2003 number 7) was 0.12 µg/mL (≈ 0.19 µM). It also gave an MIC ([5]; S. aureus BSAC culture year 2003 number 8) of 0.06 µg/mL (≈ 0.095 µM), an MIC ([5]; S. aureus BSAC culture year 2003 number 9) of 0.25 µg/mL (≈ 0.396 µM) and an MIC ([5]; S. aureus BSAC culture year 2003 number 10) of 0.25 µg/mL (≈ 0.396 µM). For the same compound, the MIC ([5]; S. aureus BSAC culture year 2004 number 1) was 0.25 µg/mL (≈ 0.396 µM), the MIC ([5]; S. aureus BSAC culture year 2004 number 2) was 0.5 µg/mL (≈ 0.791 µM) and the MIC ([5]; S. aureus BSAC culture year 2004 number 3) was 0.5 µg/mL (≈ 0.791 µM). It also gave an MIC ([5]; S. aureus BSAC culture year 2004 number 4) of 0.25 µg/mL (≈ 0.396 µM), an MIC ([5]; S. aureus BSAC culture year 2004 number 5) of 0.12 µg/mL (≈ 0.19 µM) and an MIC ([5]; S. aureus BSAC culture year 2004 number 6) of 0.25 µg/mL (≈ 0.396 µM). The MIC ([5]; S. aureus BSAC culture year 2004 number 7) was 0.12 µg/mL (≈ 0.19 µM), the MIC ([5]; S. aureus BSAC culture year 2004 number 8) was 0.25 µg/mL (≈ 0.396 µM) and the MIC ([5]; S. aureus BSAC culture year 2004 number 9) was 0.12 µg/mL (≈ 0.19 µM). The MIC ([5]; S. aureus BSAC culture year 2004 number 10) was 0.12 µg/mL (≈ 0.19 µM), the MIC ([5]; S. aureus BSAC culture year 2005 number 1) was 0.25 µg/mL (≈ 0.396 µM) and the MIC ([5]; S. aureus BSAC culture year 2005 number 2) was 1 µg/mL (≈ 1.58 µM). For the same compound, the MIC ([5]; S. aureus BSAC culture year 2005 number 3) was 0.12 µg/mL (≈ 0.19 µM), the MIC ([5]; S. aureus BSAC culture year 2005 number 4) was 0.25 µg/mL (≈ 0.396 µM) and the MIC ([5]; S. aureus BSAC culture year 2005 number 5) was 0.25 µg/mL (≈ 0.396 µM). For the same compound, the MIC ([5]; S. aureus BSAC culture year 2005 number 6) was 0.12 µg/mL (≈ 0.19 µM), the MIC ([5]; S. aureus BSAC culture year 2005 number 7) was 0.25 µg/mL (≈ 0.396 µM) and the MIC ([5]; S. aureus BSAC culture year 2005 number 8) was 0.5 µg/mL (≈ 0.791 µM). For the same compound, the MIC ([5]; S. aureus BSAC culture year 2005 number 9) was 0.25 µg/mL (≈ 0.396 µM), the MIC ([5]; S. aureus BSAC culture year 2005 number 10) was 0.12 µg/mL (≈ 0.19 µM) and the “microbicidal activity against a number of different strains of Staphylococcus aureus” value ([5]; result in words) was “displayed microbicidal activity”.
